Experimental data from patent US20060258754A1, “Method of treating endothelial dysfunction, oxidative stress and related diseases” (priority 2004, published 2006).

Assays:
[1] = human PCOS; cited from earlier work
aortic rings = test: Acute incubation of diabetic rabbit aortic rings: acetylcholine relaxation; parameters: species or system alloxan-diabetic rabbits; details: acute incubation 1 μM, medium and higher concentrations of acetyl choline, FIG. 7
Description: Male California rabbits, weighing 2-2.5 kg, were provided by the vivarium of the Biomedicine Institute-UFC. Diabetes was induced by intraperitoneal injection of alloxan (150 mg/kg) and only animals with plasma glucose concentration above 200 mg/dl were included in the study. Age-matched euglycemic rabbits were used as controls.
Kidneys and aortic rings are harvested from diabetic rabbits after 3 weeks of alloxan injection. They are perfused with KHS containing 1 μM D-chiro-inositol, pinitol, dibutyryl D-chiro-inositol, myo-inositol or saline for 1 hour. Dose response curves for acetylcholine are then performed following prior phenylephrine vasoconstriction as described. At least 6 separate experiments will be performed each in duplicate.
Kidneys and aortic rings were harvested from diabetic rabbits after 3 weeks of alloxan injection. The animals were sacrificed under sodium pentobarbital anesthesia (Hypnol®, 150-200 mg/kg). […]. Rabbit kidneys were obtained from male New Zealand rabbits (1-1.5 kg) after cannulation of the renal artery in situ. […] The alterations in perfusion pressure are continuously recorded in a four-channel polygraph (Narco Biosystems, Houston, Tex., USA) by means of a pressure transducer (P23 Gould Stratham, Oxnard, Calif., USA). […]

Row | Compound | ovulation, glucose tolerance and metabolic balance in PCOS [1] | restoring vasorelaxant effect in aortic rings (aortic rings) | restoring vasorelaxant effect in aortic rings (aortic rings; listed as dibutyryl D-chiro-inositol)
1 | OC1C(O)C(O)C(O)C(O)C1O [DCI, D-chiro-inositol] | effective in human PCOS in restoring ovulation, glucose tolerance and metabolic balance |  | 
2 | CCCC(=O)O[C@@H]1[C@@H](O)[C@@H](O)[C@H](O)[C@H](O)[C@H]1OC(=O)CCC [dbDCI, 3,4-dibutyryl-D-chiroinositol] |  | more effective than myoinositol | clearly more effective than myo-inositol
